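Five concentrations, 48 hours, 96-well plates. GI50 = concentration required for 50% inhibition of growth.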 Calls of active or inactive are those of the source. Rule as the data show it: active = GI50 up to about 1.1 µM and inactive = higher.
What was measured:
Assay in all cases: NCI tumour cell line growth inhibition, 48 h
K562 = tested on: K562
TK-10 = tested on: TK-10
OVCAR-8 = tested on: OVCAR-8
BT-549 = tested on: BT-549
KM12 = tested on: KM12
786-0 = tested on: 786-0
MDA-MB-231 = tested on: MDA-MB-231
SNB-75 = tested on: SNB-75
SNB-19 = tested on: SNB-19
SF-539 = tested on: SF-539
SW-620 = tested on: SW-620
HCT-15 = tested on: HCT-15
HCT-116 = tested on: HCT-116
Hs-578T = tested on: Hs-578T
SR = tested on: SR
A498 = tested on: A498
A549 = tested on: A549
NCI/ADR-RES = tested on: NCI/ADR-RES
MCF7 = tested on: MCF7
RXF 393 = tested on: RXF 393

SMILES | GI50 (K562) | GI50 (TK-10) | GI50 (OVCAR-8) | GI50 (BT-549) | GI50 (KM12) | GI50 (786-0) | GI50 (MDA-MB-231) | GI50 (SNB-75) | GI50 (SNB-19) | GI50 (SF-539) | GI50 (SW-620) | GI50 (HCT-15) [µM] | GI50 (HCT-116) | GI50 (Hs-578T) | GI50 (SR) | GI50 (A498) | GI50 (A549) | GI50 (NCI/ADR-RES) | GI50 (MCF7) | GI50 (RXF 393)
O=C(O)[C@@H]1CCC(=O)N1C(c1ccc2c(c1)OCO2)c1ccc2c(c1)OCO2 | > 100 µM (inactive) | > 100 µM (inactive) | > 100 µM (inactive) | > 100 µM (inactive) | > 100 µM (inactive) | > 100 µM (inactive) | > 100 µM (inactive) | > 100 µM (inactive) | > 100 µM (inactive) | > 100 µM (inactive) | > 100 µM (inactive) | > 100 | > 100 µM (inactive) | > 100 µM (inactive) | > 100 µM (inactive) | > 100 µM (inactive) | > 100 µM (inactive) | > 100 µM (inactive) | > 100 µM (inactive) | –
C#CC1(O)C(COP(=O)(O)OCC2OC(n3ccc(NCCCCCCCCCCCCCCCCCC)nc3=O)C(O)C2O)OC(n2ccc(N)nc2=O)C1O (stereo not drawn) | 0.278 µM (active) | 0.401 µM (active) | 1.07 µM (active) | 2.73 µM (inactive) | 0.836 µM (active) | 4.22 µM (inactive) | 1.03 µM (active) | 2.67 µM (inactive) | 2.71 µM (inactive) | 1.16 µM (inactive) | 0.228 µM (active) | 0.353 | 0.245 µM (active) | 2.12 µM (inactive) | < 0.0124 µM (active) | 3.6 µM (inactive) | 0.0525 µM (active) | 0.556 µM (active) | 0.059 µM (active) | 4.15 µM (inactive)
C=C[C@@]1(C)CC2(C=C(CO)C(O)O2)Oc2c1c(=O)oc1cccc(C)c21 (stereo partly drawn) | 2.23 µM (inactive) | 17.6 µM (inactive) | 5.28 µM (inactive) | 3.35 µM (inactive) | 18.3 µM (inactive) | 1.98 µM (inactive) | 10.5 µM (inactive) | 14.8 µM (inactive) | 16.7 µM (inactive) | 5.53 µM (inactive) | 1.55 µM (inactive) | 2.39 | 1.74 µM (inactive) | 10.6 µM (inactive) | 2.4 µM (inactive) | 24.2 µM (inactive) | 31 µM (inactive) | 2.61 µM (inactive) | 6.62 µM (inactive) | 2.26 µM (inactive)
C=C1C(=O)OC2C1C(=O)C/C(C)=C/CCC1(C)OC21 (stereo not drawn) | 5.6 µM (inactive) | 16.1 µM (inactive) | 25.6 µM (inactive) | 23.3 µM (inactive) | 23.6 µM (inactive) | 14 µM (inactive) | 20.8 µM (inactive) | 25.4 µM (inactive) | 38.4 µM (inactive) | 15 µM (inactive) | 16.4 µM (inactive) | 11.4 | 14.8 µM (inactive) | 44.1 µM (inactive) | 3.33 µM (inactive) | 23.1 µM (inactive) | 19.4 µM (inactive) | 31 µM (inactive) | 8.63 µM (inactive) | 15.4 µM (inactive)
CN(C)c1ccc2c(c1)oc(=O)c1ccccc12 | 4.52 µM (inactive) | 19.7 µM (inactive) | 11.1 µM (inactive) | 3.44 µM (inactive) | – | 11.9 µM (inactive) | 16.5 µM (inactive) | 17.8 µM (inactive) | 14.3 µM (inactive) | 14 µM (inactive) | 11.4 µM (inactive) | 12.6 | 12.3 µM (inactive) | 17.5 µM (inactive) | 3.2 µM (inactive) | 15.8 µM (inactive) | 14.7 µM (inactive) | 14.1 µM (inactive) | 5.08 µM (inactive) | 5.4 µM (inactive)
CC1CC[C@]2(C(=O)O)CCC3(C)C(=C2[C@H]1C)C=CC1[C@@]2(C)CC[C@H](O)C(C)(C)C2CC[C@]13C (stereo partly drawn) | 14.7 µM (inactive) | 33.5 µM (inactive) | 27.7 µM (inactive) | 33.7 µM (inactive) | 31 µM (inactive) | 29.9 µM (inactive) | 21.3 µM (inactive) | 24.5 µM (inactive) | 30.5 µM (inactive) | 17.3 µM (inactive) | 45.9 µM (inactive) | 27.4 | 17.6 µM (inactive) | 26 µM (inactive) | 12.4 µM (inactive) | – | 11.8 µM (inactive) | 36.6 µM (inactive) | 30 µM (inactive) | 3.8 µM (inactive)
Cc1ccc(C)n1-n1c(Cc2ccccc2)n[nH]c1=O | > 100 µM (inactive) | > 100 µM (inactive) | > 100 µM (inactive) | > 100 µM (inactive) | > 100 µM (inactive) | > 100 µM (inactive) | > 100 µM (inactive) | 22.2 µM (inactive) | > 100 µM (inactive) | – | > 100 µM (inactive) | > 100 | > 100 µM (inactive) | > 100 µM (inactive) | > 100 µM (inactive) | > 100 µM (inactive) | > 100 µM (inactive) | > 100 µM (inactive) | > 100 µM (inactive) | > 100 µM (inactive)
CN(C)CCn1c(=O)oc2cc(C(=O)CN3CCOCC3)ccc21 | > 100 µM (inactive) | > 100 µM (inactive) | > 100 µM (inactive) | > 100 µM (inactive) | > 100 µM (inactive) | > 100 µM (inactive) | > 100 µM (inactive) | > 100 µM (inactive) | > 100 µM (inactive) | > 100 µM (inactive) | > 100 µM (inactive) | > 100 | > 100 µM (inactive) | > 100 µM (inactive) | > 100 µM (inactive) | – | – | > 100 µM (inactive) | > 100 µM (inactive) | > 100 µM (inactive)
CCOC(=O)/C(=N\Nc1ccc(-n2c(C)nc3ccc(Br)cc3c2=O)cc1)C(C)=O | 35.2 µM (inactive) | 60.3 µM (inactive) | 55.2 µM (inactive) | 47 µM (inactive) | 59.6 µM (inactive) | 59.2 µM (inactive) | 31.9 µM (inactive) | 30.7 µM (inactive) | 52.1 µM (inactive) | 38.8 µM (inactive) | > 100 µM (inactive) | 64.4 | 43.6 µM (inactive) | 29.1 µM (inactive) | 22.3 µM (inactive) | 52.7 µM (inactive) | 53.8 µM (inactive) | 52 µM (inactive) | 50.4 µM (inactive) | –
O=C1N=C(c2ccccc2)O/C1=C\c1ccccc1 | – | > 100 µM (inactive) | > 100 µM (inactive) | > 100 µM (inactive) | > 100 µM (inactive) | > 100 µM (inactive) | > 100 µM (inactive) | > 100 µM (inactive) | > 100 µM (inactive) | > 100 µM (inactive) | > 100 µM (inactive) | > 100 | > 100 µM (inactive) | > 100 µM (inactive) | > 100 µM (inactive) | > 100 µM (inactive) | > 100 µM (inactive) | > 100 µM (inactive) | > 100 µM (inactive) | > 100 µM (inactive)
CN(C)C(=O)Oc1ccc[n+](C)c1 [PYRIDOSTIGMINE BROMIDE] | > 100 µM (inactive) | > 100 µM (inactive) | > 100 µM (inactive) | > 100 µM (inactive) | > 100 µM (inactive) | > 100 µM (inactive) | > 100 µM (inactive) | > 100 µM (inactive) | > 100 µM (inactive) | – | > 100 µM (inactive) | > 100 | > 100 µM (inactive) | > 100 µM (inactive) | 8.28 µM (inactive) | > 100 µM (inactive) | – | > 100 µM (inactive) | > 100 µM (inactive) | > 100 µM (inactive)
Clc1cc(Cl)nc(Nc2ccc3c(c2)CCC3)n1 | 20.6 µM (inactive) | 18.1 µM (inactive) | 72.3 µM (inactive) | 48.6 µM (inactive) | 21.4 µM (inactive) | 39.1 µM (inactive) | 51.3 µM (inactive) | – | 89.5 µM (inactive) | > 100 µM (inactive) | 46.6 µM (inactive) | 33.7 | 28.6 µM (inactive) | 28.4 µM (inactive) | 30.3 µM (inactive) | 31.3 µM (inactive) | 32.6 µM (inactive) | 48 µM (inactive) | 20.5 µM (inactive) | –
COC(=O)C(=O)C(C(=O)C(=O)Nc1ccccc1C(C)=O)c1nc2ccc(C(=O)c3ccccc3)cc2nc1O (stereo not drawn) | 39.4 µM (inactive) | > 100 µM (inactive) | 39.6 µM (inactive) | > 100 µM (inactive) | 27 µM (inactive) | > 100 µM (inactive) | 78 µM (inactive) | 32.7 µM (inactive) | 52 µM (inactive) | 76.7 µM (inactive) | – | 74 | > 100 µM (inactive) | 47.2 µM (inactive) | 3.77 µM (inactive) | > 100 µM (inactive) | > 100 µM (inactive) | 30.6 µM (inactive) | 19.4 µM (inactive) | 51.5 µM (inactive)
CCCC(=O)OCC1OC(n2cc(F)c(=O)[nH]c2=O)C(F)C1OC(=O)CCC (stereo not drawn) | 56.1 µM (inactive) | 49.3 µM (inactive) | 19.6 µM (inactive) | 13.9 µM (inactive) | > 100 µM (inactive) | 18.2 µM (inactive) | > 100 µM (inactive) | 43.5 µM (inactive) | – | 1.63 µM (inactive) | 53.6 µM (inactive) | > 100 | 21.5 µM (inactive) | 26.5 µM (inactive) | 9.73 µM (inactive) | 6.38 µM (inactive) | 10.1 µM (inactive) | 7.48 µM (inactive) | 0.6 µM (active) | 54.7 µM (inactive)
CCCCCCCCCCCCCCCCCCNC(=S)NC=C1C(=O)c2ccccc2C1=O | – | 16.6 µM (inactive) | 13.2 µM (inactive) | 15.7 µM (inactive) | 10.7 µM (inactive) | 9.12 µM (inactive) | 10.9 µM (inactive) | – | 17.3 µM (inactive) | 18.3 µM (inactive) | 11.1 µM (inactive) | 10.2 | 4.08 µM (inactive) | 16.3 µM (inactive) | 2.75 µM (inactive) | 19.2 µM (inactive) | 13.2 µM (inactive) | 14.2 µM (inactive) | 12 µM (inactive) | –

Reference: ChEMBL document CHEMBL1201862, “PubChem BioAssay data set” (2004)
